{"source": "paper PMC10220492", "about": "“Investigating the mechanism of photoisomerization in jellyfish rhodopsin with the counterion at an atypical position” (The Journal of Biological Chemistry, 2023)", "molecular_target": "T1, JelRh (box jellyfish rhodopsin) (Carybdea rastonii, UniProt B6F0Y5)", "T1 construct": "gene cubop; opsin gene in pFastBac HT vector with C-terminal rho 1D4 tag (TETSQVAPA), Sf9 baculovirus expression, DDM-solubilized, 1D4-purified, wild type reconstituted in PC liposomes", "T1 sequence (B6F0Y5 1-330)": "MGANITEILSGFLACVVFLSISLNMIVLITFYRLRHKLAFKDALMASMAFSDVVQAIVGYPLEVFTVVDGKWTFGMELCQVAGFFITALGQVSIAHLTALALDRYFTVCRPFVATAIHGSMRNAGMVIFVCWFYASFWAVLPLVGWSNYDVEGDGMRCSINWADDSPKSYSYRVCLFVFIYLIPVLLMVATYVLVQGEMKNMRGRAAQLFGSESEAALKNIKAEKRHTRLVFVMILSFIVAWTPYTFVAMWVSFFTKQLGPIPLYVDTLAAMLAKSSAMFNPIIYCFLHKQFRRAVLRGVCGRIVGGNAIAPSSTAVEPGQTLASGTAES", "experiment": "low-temperature UV-visible and FTIR difference spectroscopy of reconstituted pigment", "format": "binding", "settings": "77 K", "data": [{"compound": "CC1=C(/C=C/C(C)=C/C=C\\C(C)=C\\C=O)C(C)(C)CCC1", "note": "[11-cis-retinal]", "values": [{"measurement": "low-temperature UV-visible and FTIR difference spectroscopy of reconstituted pig", "setting": "covalent (protonated Schiff base), PC liposomes, hydrated film, 11-cis-retinal added at 30 uM to membranes", "value": "The sample after membrane preparation was reconstituted with 11-cis-retinal overnight"}]}, {"compound": "CC1=C(/C=C/C(C)=C/C=C/C(C)=C/C=O)C(C)(C)CCC1", "note": "[all-trans-retinal]", "values": [{"measurement": "low-temperature UV-visible and FTIR difference spectroscopy of reconstituted pig", "setting": "covalent (Schiff base), all-trans bound Batho intermediate made in situ by 500 nm illumination", "value": "the isomerization from 11-cis to all-trans retinal in JelRh is similar to that of BovRh"}]}, {"compound": "CC1=C(/C=C/C(C)=C\\C=C\\C(C)=C\\C=O)C(C)(C)CCC1", "note": "[9-cis-retinal]", "values": [{"measurement": "low-temperature UV-visible and FTIR difference spectroscopy of reconstituted pig", "setting": "covalent (protonated Schiff base), 9-cis bound form (Iso-JelRh) made in situ by >520 nm illumination of Batho", "value": "confirming the formation of the 9-cis bound form (so-called Iso-rhodopsin or Iso)"}]}]}
